Assay results taken from USRE37781E1, “Substituted cyclic carbonyls and derivatives thereof useful as retroviral protease inhibitors” (DuPont Pharmaceuticals Company, priority 1991, dated 2002).
pKi: −log10 of the molar value. In brackets after ≈: the same amount, converted by molar mass. Like-named read-outs stand apart in the source and are kept apart here.

Tests used:
HIV-1 (RF) in MT-2 cells = experiment: microbe, parasite or virus in culture; assay type: cell-based
Summary of the method: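 Read-out: gag and pol viral RNA captured by 5′-biotinylated oligonucleotides on streptavidin-coated wells, detected with alkaline phosphatase-linked reporter oligonucleotides, calibrated against BH10 in vitro transcripts. Virus stocks (RF, MN, IIIB) come from H9 cultures; MT-2 host cells kept in RPMI 1640, 5% FCS.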

HIV protease = molecular target: T1, HIV protease (Human immunodeficiency virus type 1 group M subtype B, UniProt P04585); experiment: biochemical; set-up: species or system HIV-1
T1 construct: plasmid containing HIV protease under the control of an inducible T7 promoter; made in house; host or cells: E. coli (inclusion bodies, T7 promoter)
Method: HIV Protease Inhibition Assay—Spectroscopic Method
Inclusion bodies were solubilized in 8M urea, 50 mM tris pH 8.0. Protease activity was recovered by dilution 20-fold into buffer containing 50 mM sodium acetate pH 5.5, 1 mM EDTA, 10% glycerol and 5% ethylene glycol. Enzyme was used at a final concentration of 1.0-10 ug/ml.
Stock solutions of 10 mM were prepared in DMSO.
All further dilutions were done in DMSO.

[1] = Human immunodeficiency virus 1, MT2, Table 2A, read-out: IC90
[2] = Human immunodeficiency virus 1, MT2, second table headed Table 2A, read-out: IC90
[3] = second table headed Table 2A, read-out: Ki
[4] = Human immunodeficiency virus 1, MT2, Table 1c, read-out: IC90
[5] = Human immunodeficiency virus 1, MT2, Table 1e, read-out: IC90
[6] = Human immunodeficiency virus 1, MT2, 24 h, Table 1d, upper part, read-out: IC90
[7] = Table 1d, upper part, read-out: Ki

O=C1N(Cc2ccc(F)c(C(F)(F)F)c2)C(Cc2ccccc2)C(O)C(O)C(Cc2ccccc2)N1Cc1ccc(F)c(C(F)(F)F)c1 (centres unmarked) [Example 2K]
IC90 (HIV-1 (RF) in MT-2 cells; [1]): < 10 µg/mL | IC90 (HIV-1 (RF) in MT-2 cells; [2]): < 10 µg/mL | melting point: 167.2 °C | pKi (HIV protease; Table 2A, read-out: Ki): 6.00 to 8.00 | pKi (HIV protease; [3]): 6.00 to 8.00

CCCCN1C(=NC#N)N(CCCC)C(Cc2ccccc2)C(O)C(O)C1Cc1ccccc1 (centres unmarked) [Example 1BX]
IC90 (HIV-1 (RF) in MT-2 cells; [4]): < 10 µg/mL | melting point: 58.3 °C | pKi (HIV protease; Ki): > 8.00

O=C1N(CCCc2ccccc2)C(Cc2ccccc2)C(O)C(O)C(Cc2ccccc2)N1CCCc1ccccc1 (centres unmarked) [Example 2B]
IC90 (HIV-1 (RF) in MT-2 cells; [1]): < 10 µg/mL | IC90 (HIV-1 (RF) in MT-2 cells; [2]): < 10 µg/mL | melting point: 120.7 °C | pKi (HIV protease; Table 2A, read-out: Ki): 6.00 to 8.00 | pKi (HIV protease; [3]): 6.00 to 8.00

C=CCN1C(=O)N(Cc2ccccc2)C(Cc2ccccc2)C(O)C(O)C1Cc1ccccc1 (centres unmarked) [Example 2G]
IC90 (HIV-1 (RF) in MT-2 cells; [1]): < 10 µg/mL | IC90 (HIV-1 (RF) in MT-2 cells; [2]): < 10 µg/mL | melting point: 226.5 °C | pKi (HIV protease; Table 2A, read-out: Ki): > 8.00 | pKi (HIV protease; [3]): > 8.00

CCCCCCN1C(=O)N(CCCCCC)C(Cc2ccccc2)C(O)C(O)C1Cc1ccccc1 (centres unmarked) [Example 1Y]
melting point: 110 to 112 °C | pKi (HIV protease; Ki): > 8.00

C#CCN1C(=O)N(CC#C)C(Cc2ccccc2)C(O)C(O)C1Cc1ccccc1 (centres unmarked) [Example 1AP]
melting point: 198 to 200 °C | pKi (HIV protease; Table 1a, read-out: Ki): 6.00 to 8.00

N#CN=C1N(Cc2cccc(OCc3ccccc3)c2)C(Cc2ccccc2)C(O)C(O)C(Cc2ccccc2)N1Cc1cccc(OCc2ccccc2)c1 (centres unmarked) [Example 1CA]
IC90 (HIV-1 (RF) in MT-2 cells; [4]): > 100 µg/mL | melting point: 75.2 °C | pKi (HIV protease; Ki): 6.00 to 8.00

O=C1N(Cc2ccccc2)C(CCc2ccccc2)[C@@H](O)[C@@H](Cc2ccccc2)N1Cc1ccccc1 (some centres unmarked) [Example 8AD]
IC90 (HIV-1 (RF) in MT-2 cells; [5]): < 10 µg/mL | pKi (HIV protease; Table 1e, read-out: Ki): 6.00 to 8.00

N#Cc1cccc(CN2C(=O)N(Cc3cccc(C#N)c3)[C@H](Cc3ccccc3)[C@H](O)C2CCc2ccccc2)c1 (some centres unmarked) [Example 8AN]
IC90 (HIV-1 (RF) in MT-2 cells; Table 1e): + (+=>100 μg/mL) | pKi (HIV protease; Ki): < 6.00

CC(=O)OC1C(OC(C)=O)C(Cc2ccccc2)N(Cc2ccc3ccccc3c2)C(=O)N(Cc2ccc3ccccc3c2)C1Cc1ccccc1 (centres unmarked) [Example 7J]
IC90 (HIV-1 (RF) in MT-2 cells; [6]): > 100 µg/mL | pKi (HIV protease; [7]): 6.00 to 8.00

O=C1N(CCN2CCOCC2)C(Cc2ccccc2)C(O)C(O)C(Cc2ccccc2)N1CCN1CCOCC1 (centres unmarked) [Example 1AA]
melting point: 70 to 75 °C | pKi (HIV protease; Table 1a, read-out: Ki): < 6.00

N#Cc1cccc(CN2C(=O)N3C(Cc4ccccc4)C3C(O)C2Cc2ccccc2)c1 (centres unmarked) [Example 21F]
IC90 (HIV-1 (RF) in MT-2 cells; Table 2j): + (+=>100 μg/mL) | pKi (HIV protease; Table 2j, read-out: Ki): < 6.00

NC(=O)c1cccc(CN2C(=O)N3C(Cc4ccccc4)C3C(O)C2Cc2ccccc2)c1 (centres unmarked) [Example 21G]
IC90 (HIV-1 (RF) in MT-2 cells; Table 2j): ++ (++=10 to 100 μg/mL) | pKi (HIV protease; Table 2j, read-out: Ki): 6.00 to 8.00

O=C1N(Cc2cccc(CO)c2)C(Cc2ccccc2)C(O)C(C(Br)Cc2ccccc2)N1Cc1cccc(CO)c1 (centres unmarked) [Example 8V]
IC90 (HIV-1 (RF) in MT-2 cells; [5]): < 10 µg/mL | pKi (HIV protease; Table 1e, read-out: Ki): 6.00 to 8.00

O=C1N(CC2CC2)[C@H](Cc2ccccc2)C[C@@H](O)[C@@H](Cc2ccccc2)N1CC1CC1 [Example 7U]
IC90 (HIV-1 (RF) in MT-2 cells; [6]): < 10 µg/mL | pKi (HIV protease; [7]): > 8.00

O=C1OC2C(O1)C(Cc1ccccc1)N(Cc1ccc3ccccc3c1)C(=O)N(Cc1ccc3ccccc3c1)C2Cc1ccccc1 (centres unmarked) [Example 7L]
IC90 (HIV-1 (RF) in MT-2 cells; [6]): > 100 µg/mL | pKi (HIV protease; Ki): 6.00 to 8.00

O=C1N(CC2CC2)C(C(F)Cc2ccccc2)[C@@H](O)[C@@H](Cc2ccccc2)N1CC1CC1 (some centres unmarked) [Example 8B]
IC90 (HIV-1 (RF) in MT-2 cells; [5]): < 10 µg/mL | pKi (HIV protease; Table 1e, read-out: Ki): 6.00 to 8.00

C=CCN1C(=O)N(CCCC)C(Cc2ccccc2)C2OS(=O)OC2C1Cc1ccccc1 (centres unmarked) [Example 7D]
IC90 (HIV-1 (RF) in MT-2 cells; [6]): 10 to 100 µg/mL (≈ 21.3 to 213 µM) | pKi (HIV protease; [7]): > 8.00

CC(C)CCCN1C(=O)N(CCCC(C)C)C(Cc2ccccc2)C(O)C(O)C1Cc1ccccc1 (centres unmarked) [Example 1AM]
melting point: 120 to 122 °C | pKi (HIV protease; Ki): > 8.00

O=C1N(Cc2cc(F)cc(C(F)(F)F)c2)C(Cc2ccccc2)C(O)C(O)C(Cc2ccccc2)N1Cc1cc(F)cc(C(F)(F)F)c1 (centres unmarked) [Example 2M]
melting point: 162.3 °C | pKi (HIV protease; Table 2A, read-out: Ki): 6.00 to 8.00 | pKi (HIV protease; [3]): 6.00 to 8.00

N#CN=C1N(Cc2ccc(C#N)cc2)C(Cc2ccccc2)C(O)C(O)C(Cc2ccccc2)N1Cc1ccc(C#N)cc1 (centres unmarked) [Example 1CG]
IC90 (HIV-1 (RF) in MT-2 cells; [4]): < 10 µg/mL | pKi (HIV protease; Ki): 6.00 to 8.00

O=C1N(Cc2cccc(O)c2)C(C(F)Cc2ccccc2)[C@@H](O)[C@@H](Cc2ccccc2)N1Cc1cccc(O)c1 (some centres unmarked) [Example 8F]
IC90 (HIV-1 (RF) in MT-2 cells; [5]): < 10 µg/mL | pKi (HIV protease; Ki): 6.00 to 8.00

CN1C(=O)N(C)C(Cc2ccccc2)C(O)C(O)C1Cc1ccccc1 (centres unmarked) [Example 1W]
melting point: 170 to 174 °C | pKi (HIV protease; Ki): < 6.00

C=CCN1C(=O)N(CC=C)[C@H](Cc2ccccc2)[C@H](O)C1C(F)Cc1ccccc1 (some centres unmarked) [Example 7W]
IC90 (HIV-1 (RF) in MT-2 cells; [5]): 10 to 100 µg/mL (≈ 24.5 to 245 µM) | pKi (HIV protease; Table 1e, read-out: Ki): 6.00 to 8.00

O=C1N(Cc2ccc3ccccc3c2)C(Cc2ccccc2)C2OC(=S)OC2C(Cc2ccccc2)N1Cc1ccc2ccccc2c1 (centres unmarked) [Example 7N]
IC90 (HIV-1 (RF) in MT-2 cells; [6]): > 100 µg/mL | pKi (HIV protease; [7]): < 6.00
